Patent US12281080B2, “Quinoline-based compounds and methods of inhibiting CDK8/19” (University of South Carolina, priority 2018, dated 2025)

Columns and labels:
DRAK2 (STK17B) = DRAK2 (STK17B) (Homo sapiens (Human), UniProt O94768); assay: KINOMEscan scanMAX; type: binding; details: 2000 nM; read-out: Percent Control
EGFR(E746-A750del) = EGFR(E746-A750del) (Homo sapiens (Human), UniProt P00533, DEL746-750); assay: KINOMEscan scanMAX; type: binding; details: 2000 nM; read-out: Percent Control
EGFR(G719C) = EGFR(G719C) (Homo sapiens (Human), UniProt P00533, G719C); assay: KINOMEscan scanMAX; type: binding; details: 2000 nM; read-out: Percent Control
TNK1 = TNK1 (Homo sapiens (Human), UniProt Q13470); assay: KINOMEscan scanMAX; type: binding; details: 2000 nM; read-out: Percent Control
ZAK = ZAK (Homo sapiens (Human), UniProt Q9NYL2); assay: KINOMEscan scanMAX; type: binding; details: 2000 nM; read-out: Percent Control
Chain of ZAK (Q9NYL2 whole entry): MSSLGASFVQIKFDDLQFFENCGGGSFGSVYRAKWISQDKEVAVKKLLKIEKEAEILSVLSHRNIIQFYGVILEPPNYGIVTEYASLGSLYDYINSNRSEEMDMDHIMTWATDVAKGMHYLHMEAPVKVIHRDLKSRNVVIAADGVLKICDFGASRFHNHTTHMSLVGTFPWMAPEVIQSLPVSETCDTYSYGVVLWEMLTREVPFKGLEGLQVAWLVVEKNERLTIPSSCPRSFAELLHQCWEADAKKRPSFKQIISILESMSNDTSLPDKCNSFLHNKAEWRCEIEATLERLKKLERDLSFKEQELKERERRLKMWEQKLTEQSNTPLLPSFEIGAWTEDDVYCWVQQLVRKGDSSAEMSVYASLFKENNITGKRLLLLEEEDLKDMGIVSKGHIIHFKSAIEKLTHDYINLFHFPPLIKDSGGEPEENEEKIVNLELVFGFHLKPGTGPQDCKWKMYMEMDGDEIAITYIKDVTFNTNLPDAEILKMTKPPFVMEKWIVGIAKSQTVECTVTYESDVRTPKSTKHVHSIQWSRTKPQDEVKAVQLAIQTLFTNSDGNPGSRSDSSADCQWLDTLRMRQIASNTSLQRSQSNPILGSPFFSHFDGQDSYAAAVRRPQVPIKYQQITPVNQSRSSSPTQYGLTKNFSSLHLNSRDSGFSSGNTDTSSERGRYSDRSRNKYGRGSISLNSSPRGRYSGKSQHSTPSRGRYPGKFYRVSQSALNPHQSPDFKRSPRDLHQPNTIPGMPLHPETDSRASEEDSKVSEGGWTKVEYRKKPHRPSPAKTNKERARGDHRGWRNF

[1] = target: ABL1(M351T)-phosphorylated (Homo sapiens (Human), UniProt P00519, M351T); assay: KINOMEscan scanMAX; type: binding; details: 2000 nM; read-out: Percent Control
LIMK1 = LIMK1 (Homo sapiens (Human), UniProt P53667); assay: KINOMEscan scanMAX; type: binding; details: 2000 nM; read-out: Percent Control
Chain of LIMK1 (P53667 whole entry): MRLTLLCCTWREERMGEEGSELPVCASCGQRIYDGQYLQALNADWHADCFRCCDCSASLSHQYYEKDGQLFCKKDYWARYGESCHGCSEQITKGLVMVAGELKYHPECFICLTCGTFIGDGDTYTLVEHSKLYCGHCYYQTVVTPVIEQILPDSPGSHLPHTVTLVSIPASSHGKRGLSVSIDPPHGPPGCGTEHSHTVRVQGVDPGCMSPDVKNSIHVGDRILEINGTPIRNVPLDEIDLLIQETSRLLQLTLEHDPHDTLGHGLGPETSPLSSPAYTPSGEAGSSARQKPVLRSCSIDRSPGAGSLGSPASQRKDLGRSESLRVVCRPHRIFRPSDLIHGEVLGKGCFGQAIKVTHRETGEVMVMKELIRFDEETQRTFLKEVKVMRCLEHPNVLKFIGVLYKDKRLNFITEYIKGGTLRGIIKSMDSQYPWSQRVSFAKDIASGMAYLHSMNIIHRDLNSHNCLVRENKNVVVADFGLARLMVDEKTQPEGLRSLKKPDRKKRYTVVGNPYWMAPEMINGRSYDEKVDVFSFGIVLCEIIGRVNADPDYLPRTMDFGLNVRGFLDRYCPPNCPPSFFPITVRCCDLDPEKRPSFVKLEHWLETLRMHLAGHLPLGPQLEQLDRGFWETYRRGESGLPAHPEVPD

CAMK2D = CAMK2D (Homo sapiens (Human), UniProt Q13557); assay: KINOMEscan scanMAX; type: binding; details: 2000 nM; read-out: Percent Control
OSR1 (OXSR1) = OSR1 (OXSR1) (Homo sapiens (Human), UniProt O95747); assay: KINOMEscan scanMAX; type: binding; details: 2000 nM; read-out: Percent Control
ALK = ALK (Homo sapiens (Human), UniProt Q9UM73); assay: KINOMEscan scanMAX; type: binding; details: 2000 nM; read-out: Percent Control
FGFR1 = FGFR1 (Homo sapiens (Human), UniProt P11362); assay: KINOMEscan scanMAX; type: binding; details: 2000 nM; read-out: Percent Control
BRAF(V600E) = BRAF(V600E) (Homo sapiens (Human), UniProt P15056, V600E); assay: KINOMEscan scanMAX; type: binding; details: 2000 nM; read-out: Percent Control
AURKC = AURKC (Homo sapiens (Human), UniProt Q9UQB9); assay: KINOMEscan scanMAX; type: binding; details: 2000 nM; read-out: Percent Control
RIPK1 = RIPK1 (Homo sapiens (Human), UniProt Q13546); assay: KINOMEscan scanMAX; type: binding; details: 2000 nM; read-out: Percent Control
EGFR(S752-1759del) = EGFR(S752-1759del) (Homo sapiens (Human), UniProt P00533, DEL752-759); assay: KINOMEscan scanMAX; type: binding; details: 2000 nM; read-out: Percent Control
Chain of EGFR(S752-1759del) (P00533 other isoform, or with tags, fused parts or gaps del 1-668/del 752-759/del 1012-1210 limits assumed): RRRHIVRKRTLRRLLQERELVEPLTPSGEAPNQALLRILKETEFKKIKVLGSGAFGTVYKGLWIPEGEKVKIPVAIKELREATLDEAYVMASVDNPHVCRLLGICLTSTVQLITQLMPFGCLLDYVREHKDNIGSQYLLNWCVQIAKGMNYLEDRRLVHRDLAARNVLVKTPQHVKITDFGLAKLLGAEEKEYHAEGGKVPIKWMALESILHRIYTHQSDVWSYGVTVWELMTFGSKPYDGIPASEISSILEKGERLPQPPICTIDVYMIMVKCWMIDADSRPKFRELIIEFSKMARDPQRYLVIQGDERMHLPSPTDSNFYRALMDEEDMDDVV

EPHB4 = EPHB4 (Homo sapiens (Human), UniProt P54760); assay: KINOMEscan scanMAX; type: binding; details: 2000 nM; read-out: Percent Control
DAPK2 = DAPK2 (Homo sapiens (Human), UniProt Q9UIK4); assay: KINOMEscan scanMAX; type: binding; details: 2000 nM; read-out: Percent Control
[2] = target: GCN2(Kin.Dom.2, S808G) (EIF2AK4) (Homo sapiens (Human), UniProt Q9P2K8, S808G); assay: KINOMEscan scanMAX; type: binding; details: 2000 nM; read-out: Percent Control
MV4-11 cells = assay: MV4-11-Luc proliferation assay (BLI); type: cell-based; details: Homo sapiens, MV4-11, 168 h; 7 days
Protocol: The anti-leukemic activity was evaluated with a MV4-11 assay. The population of MV4-11 cells, which depend on CDK8/19 for their proliferation, was made to express Luciferase and ZsGreen by lenvtiral infection with pHIV-Luc-ZsGreen, to enable leukemia growth analysis by bioluminescence imaging (BLI). The initial Luciferase-ZsGreen transduced cell population was sorted for ZsGreen positivity with fluorescence activated cell sorting. The MV4-11 assay was performed in 96-well plates by treating the MV4-11-Luc cells with testing compounds at different concentrations for 7 days, followed by BLI to quantify the effects of test articles on cell proliferation.

IKK-alpha (CHUK) = IKK-alpha (CHUK) (Homo sapiens (Human), UniProt O15111); assay: KINOMEscan scanMAX; type: binding; details: 2000 nM; read-out: Percent Control
FLT3(ITD, D835V) = assay: KINOMEscan scanMAX; type: binding, human; details: 2000 nM
PIK3CG = PIK3CG (Homo sapiens (Human), UniProt P48736); assay: KINOMEscan scanMAX; type: binding; details: 2000 nM; read-out: Percent Control
[3] = Mouse pharmacokinetics, intraperitoneal, serum; type: in vivo, mice
Protocol: […] Blood samples were collected at different time points (5 mice per time point) and Senexin C concentration in the serum was measured by LC/MS/MS.

RIOK2 = RIOK2 (Homo sapiens (Human), UniProt Q9BVS4); assay: KINOMEscan scanMAX; type: binding; details: 2000 nM; read-out: Percent Control
CDK8 = CDK8 (Homo sapiens (Human), UniProt P49336); assay: KINOMEscan scanMAX; type: binding; details: 2000 nM; read-out: Percent Control
Chain of CDK8 (P49336 whole entry): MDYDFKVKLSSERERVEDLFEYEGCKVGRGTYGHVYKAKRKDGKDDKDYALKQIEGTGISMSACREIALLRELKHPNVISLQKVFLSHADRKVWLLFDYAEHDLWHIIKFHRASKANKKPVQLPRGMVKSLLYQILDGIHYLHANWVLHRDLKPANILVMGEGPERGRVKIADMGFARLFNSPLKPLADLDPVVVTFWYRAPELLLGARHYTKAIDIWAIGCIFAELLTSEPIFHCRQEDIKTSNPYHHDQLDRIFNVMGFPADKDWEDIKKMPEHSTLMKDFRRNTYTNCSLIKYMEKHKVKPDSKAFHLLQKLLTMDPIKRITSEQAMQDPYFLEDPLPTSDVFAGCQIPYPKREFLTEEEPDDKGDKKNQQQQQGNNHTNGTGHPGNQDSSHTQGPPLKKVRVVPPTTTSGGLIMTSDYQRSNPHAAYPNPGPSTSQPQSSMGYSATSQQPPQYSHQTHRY

CDC2L2 = CDC2L2 (Homo sapiens (Human), UniProt Q9UQ88); assay: KINOMEscan scanMAX; type: binding; details: 2000 nM; read-out: Percent Control
Chain of CDC2L2 (Q9UQ88 whole entry): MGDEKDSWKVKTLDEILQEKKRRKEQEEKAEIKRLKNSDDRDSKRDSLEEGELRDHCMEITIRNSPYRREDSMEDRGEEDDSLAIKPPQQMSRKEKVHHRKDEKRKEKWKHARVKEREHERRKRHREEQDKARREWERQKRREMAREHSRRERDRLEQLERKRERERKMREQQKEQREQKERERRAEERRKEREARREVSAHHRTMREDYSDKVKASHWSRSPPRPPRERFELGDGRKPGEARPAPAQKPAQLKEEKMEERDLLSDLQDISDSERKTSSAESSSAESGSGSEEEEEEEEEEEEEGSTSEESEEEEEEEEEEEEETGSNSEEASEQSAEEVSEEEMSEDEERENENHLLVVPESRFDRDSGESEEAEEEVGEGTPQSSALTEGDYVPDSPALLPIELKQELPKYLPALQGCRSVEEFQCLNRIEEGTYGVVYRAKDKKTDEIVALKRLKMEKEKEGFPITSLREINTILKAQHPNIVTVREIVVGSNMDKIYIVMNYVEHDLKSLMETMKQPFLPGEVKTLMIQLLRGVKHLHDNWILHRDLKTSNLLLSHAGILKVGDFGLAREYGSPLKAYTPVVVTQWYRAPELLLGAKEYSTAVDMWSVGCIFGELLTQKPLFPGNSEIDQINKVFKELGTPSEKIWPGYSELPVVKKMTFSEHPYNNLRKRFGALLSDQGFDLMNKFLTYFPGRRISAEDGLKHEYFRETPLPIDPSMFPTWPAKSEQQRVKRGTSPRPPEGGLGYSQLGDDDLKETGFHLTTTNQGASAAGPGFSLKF

BMPR1A = BMPR1A (Homo sapiens (Human), UniProt P36894); assay: KINOMEscan scanMAX; type: binding; details: 2000 nM; read-out: Percent Control
EGFR(L858R, T790M) = EGFR(L858R, T790M) (Homo sapiens (Human), UniProt P00533, L858R/T790M); assay: KINOMEscan scanMAX; type: binding; details: 2000 nM; read-out: Percent Control
RIOK1 = RIOK1 (Homo sapiens (Human), UniProt Q9BRS2); assay: KINOMEscan scanMAX; type: binding; details: 2000 nM; read-out: Percent Control
CASK = CASK (Homo sapiens (Human), UniProt O14936); assay: KINOMEscan scanMAX; type: binding; details: 2000 nM; read-out: Percent Control
Chain of CASK (O14936 whole entry): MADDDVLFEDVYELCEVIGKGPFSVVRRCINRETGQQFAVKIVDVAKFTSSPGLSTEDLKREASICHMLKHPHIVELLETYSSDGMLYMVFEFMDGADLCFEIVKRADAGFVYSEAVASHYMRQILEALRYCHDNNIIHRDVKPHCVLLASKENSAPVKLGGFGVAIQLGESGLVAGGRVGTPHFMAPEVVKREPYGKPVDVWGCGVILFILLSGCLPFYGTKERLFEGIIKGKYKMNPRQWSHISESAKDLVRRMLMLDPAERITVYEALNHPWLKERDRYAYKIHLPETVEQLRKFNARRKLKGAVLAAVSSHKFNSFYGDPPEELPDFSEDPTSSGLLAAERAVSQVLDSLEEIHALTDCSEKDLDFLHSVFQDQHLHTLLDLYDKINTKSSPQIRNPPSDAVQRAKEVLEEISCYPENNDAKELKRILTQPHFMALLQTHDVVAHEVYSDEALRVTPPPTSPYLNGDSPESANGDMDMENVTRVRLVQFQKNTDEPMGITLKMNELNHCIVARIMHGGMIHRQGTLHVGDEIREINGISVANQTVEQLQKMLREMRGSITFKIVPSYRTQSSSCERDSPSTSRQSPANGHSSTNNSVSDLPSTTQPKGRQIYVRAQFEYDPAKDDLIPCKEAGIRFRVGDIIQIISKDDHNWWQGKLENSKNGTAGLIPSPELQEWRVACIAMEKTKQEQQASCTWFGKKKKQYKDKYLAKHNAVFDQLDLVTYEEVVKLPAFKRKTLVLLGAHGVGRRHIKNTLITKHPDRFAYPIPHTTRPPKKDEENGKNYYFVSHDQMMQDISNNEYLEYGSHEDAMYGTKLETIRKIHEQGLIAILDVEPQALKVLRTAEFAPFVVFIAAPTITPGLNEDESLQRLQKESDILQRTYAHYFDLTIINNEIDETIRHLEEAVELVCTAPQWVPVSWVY

FER = FER (Homo sapiens (Human), UniProt P16591); assay: KINOMEscan scanMAX; type: binding; details: 2000 nM; read-out: Percent Control
FLT3 = FLT3 (Homo sapiens (Human), UniProt P36888); assay: KINOMEscan scanMAX; type: binding; details: 2000 nM; read-out: Percent Control
Chain of FLT3 (P36888 27-993): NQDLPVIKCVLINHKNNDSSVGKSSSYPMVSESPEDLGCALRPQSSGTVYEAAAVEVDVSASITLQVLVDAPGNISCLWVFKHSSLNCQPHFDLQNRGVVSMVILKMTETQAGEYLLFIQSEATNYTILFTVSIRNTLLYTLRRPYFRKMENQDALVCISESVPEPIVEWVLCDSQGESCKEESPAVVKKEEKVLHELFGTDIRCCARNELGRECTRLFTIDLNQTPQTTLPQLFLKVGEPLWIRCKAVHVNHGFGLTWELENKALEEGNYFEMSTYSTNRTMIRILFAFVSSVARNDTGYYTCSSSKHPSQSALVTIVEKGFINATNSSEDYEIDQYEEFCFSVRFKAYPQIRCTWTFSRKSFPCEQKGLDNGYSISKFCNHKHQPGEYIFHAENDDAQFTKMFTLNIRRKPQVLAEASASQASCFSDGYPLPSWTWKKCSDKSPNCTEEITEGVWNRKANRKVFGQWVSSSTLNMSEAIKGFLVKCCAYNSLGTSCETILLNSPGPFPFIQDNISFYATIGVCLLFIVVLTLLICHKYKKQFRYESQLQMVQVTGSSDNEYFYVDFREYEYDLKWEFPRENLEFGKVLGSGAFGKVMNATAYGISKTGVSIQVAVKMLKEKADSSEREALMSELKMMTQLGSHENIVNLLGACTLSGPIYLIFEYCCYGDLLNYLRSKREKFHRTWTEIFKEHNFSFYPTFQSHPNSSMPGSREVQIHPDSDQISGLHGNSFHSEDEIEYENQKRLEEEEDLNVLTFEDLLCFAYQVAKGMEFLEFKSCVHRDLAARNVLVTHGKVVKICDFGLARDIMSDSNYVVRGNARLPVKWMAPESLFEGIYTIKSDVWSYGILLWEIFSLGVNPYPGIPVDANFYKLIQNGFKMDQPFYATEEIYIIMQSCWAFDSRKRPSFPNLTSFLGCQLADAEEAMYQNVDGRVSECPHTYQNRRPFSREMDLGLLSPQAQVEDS

QSK (KIAA0999) = QSK (KIAA0999) (Homo sapiens (Human), UniProt Q9Y2K2); assay: KINOMEscan scanMAX; type: binding; details: 2000 nM; read-out: Percent Control
ABL1-phosphorylated = ABL1-phosphorylated (Homo sapiens (Human), UniProt P00519); assay: KINOMEscan scanMAX; type: binding; details: 2000 nM; read-out: Percent Control

Question: What does the source list for CN1CCN(C(=O)c2ccc3cc(CCNc4ccnc5ccc(C#N)cc45)ccc3c2)CC1 [compound 6148, 4-((2-(6-(4-methylpiperazine-1-carbonyl)naphthalen-2-yl)ethyl)amino)quinoline-6-carbonitrile]?
Answer: remaining binding at 2 µM (DRAK2 (STK17B)): 87%; remaining binding at 2 µM (EGFR(E746-A750del)): 100%; remaining binding at 2 µM (EGFR(G719C)): 93%; remaining binding at 2 µM (TNK1): 95%; remaining binding at 2 µM (ZAK): 94%; remaining binding at 2 µM [1]: 80%; remaining binding at 2 µM (LIMK1): 95%; remaining binding at 2 µM (CAMK2D): 94%; remaining binding at 2 µM (OSR1 (OXSR1)): 51%; remaining binding at 2 µM (ALK): 89%; remaining binding at 2 µM (FGFR1): 85%; remaining binding at 2 µM (BRAF(V600E)): 89%; remaining binding at 2 µM (AURKC): 100%; remaining binding at 2 µM (RIPK1): 100%; remaining binding at 2 µM (EGFR(S752-1759del)): 99%; remaining binding at 2 µM (EPHB4): 89%; remaining binding at 2 µM (DAPK2): 100%; remaining binding at 2 µM [2]: 93%; IC50 (MV4-11 cells): 117 nM; remaining binding at 2 µM (IKK-alpha (CHUK)): 76%; Percent Control (FLT3(ITD, D835V)): 55%; remaining binding at 2 µM (PIK3CG): 76%; elimination rate k ([3]; i.p. 19 mg/kg, female FVB mice): 0.94 h⁻¹; t1/2 ([3]; i.p. 19 mg/kg, female FVB mice): 44.4 min; Half-life higher than Senexin B ([3]; i.p., mice): > 4 fold; half-life ([3]; mouse, serum, ip, i.p. 19 mg/kg, female FVB mice): 44.4 min; AUC ([3]; mouse, serum, ip, i.p. 19 mg/kg, female FVB mice, read-out: AUC): 1570 ng·h/mL; Cmax ([3]; mouse, serum, ip, i.p. 19 mg/kg, female FVB mice, read-out: Cmax): 1160 ng/mL; bioavailability ([3]; mouse, serum, ip, i.p. 19 mg/kg, female FVB mice, read-out: bioavailability (F %)): 73%; remaining binding at 2 µM (RIOK2): 64%; remaining binding at 2 µM (CDK8): 1.3%; remaining binding at 2 µM (CDC2L2): 97%; remaining binding at 2 µM (BMPR1A): 95%; remaining binding at 2 µM (EGFR(L858R, T790M)): 82%; remaining binding at 2 µM (RIOK1): 94%; remaining binding at 2 µM (CASK): 84%; remaining binding at 2 µM (FER): 91%; remaining binding at 2 µM (FLT3): 89%; remaining binding at 2 µM (QSK (KIAA0999)): 55%; remaining binding at 2 µM (ABL1-phosphorylated): 67%
